Each molecule was assayed on VHL-deficient and VHL-restored renal carcinoma cells (RCC4) (assay: Growth inhibition of VHL-deficient vs VHL-restored renal cells by drugs at mid-effective concentration). Settings: mid-effective concentration of each drug; both cell lines in triplicates; FIG. 5.
Assay type: cell-based
Protocol: A range of concentrations for each drug were tested to identify a suitable working concentration in which there was an effect on cells growth, but not complete death (which is more likely to be due to non-specific toxicity).

| SMILES | Sensitivity (percentage of growth inhibition) of VHL-deficient cells compared to isogenic cells in which pVHL was restored |
| --- | --- |
| CN(C)CCC=C1c2ccccc2CCc2ccccc21 [Amitriptyline] | significantly more sensitive |
| COc1ccc(CCN(C)CCCC(C#N)(c2ccc(OC)c(OC)c2)C(C)C)cc1OC (centres unmarked) [Verapamil] | significantly more sensitive |
| Nc1ccncc1 [Dalfampridine] | significantly more sensitive |
| C[N+]1(CCCCC[N+]2(C)CCCC2)CCCC1 [Pentolinium] | significantly more sensitive |
| CN(C)CCCN1c2ccccc2CCc2ccccc21 [Imipramine] | significantly more sensitive |

Reference: patent publication US20150331992A1, “CANCER PROGNOSIS AND THERAPY BASED ON SYNTHEIC LETHALITY” (Ramot at Tel-Aviv University Ltd., priority 2014, published 2015)
